Target: T1, human ABHD14B (Homo sapiens, UniProt Q96IU4)
T1 sequence (Q96IU4 1-210): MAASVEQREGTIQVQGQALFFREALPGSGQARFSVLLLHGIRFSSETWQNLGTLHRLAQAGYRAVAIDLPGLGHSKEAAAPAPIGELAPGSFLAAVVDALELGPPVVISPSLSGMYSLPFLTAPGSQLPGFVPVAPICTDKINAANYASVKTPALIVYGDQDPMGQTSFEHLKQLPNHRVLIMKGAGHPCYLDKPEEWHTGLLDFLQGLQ
Test: thermal shift assay, Sypro-Orange
Assay type: binding
Conditions: 10 mM ligand, 10 μM enzyme, 10 mM Tris pH 8

Row | leftward (lower temperature) thermal shift | SMILES
1 | ~ 2 °C | CC(C)(COP(=O)(O)OP(=O)(O)OC[C@H]1O[C@@H](n2cnc3c(N)ncnc32)[C@H](O)[C@@H]1OP(=O)(O)O)[C@@H](O)C(=O)NCCC(=O)NCCS [CoA]
2 | ~ 2 °C | CC(=O)SCCNC(=O)CCNC(=O)[C@H](O)C(C)(C)COP(=O)(O)OP(=O)(O)OC[C@H]1O[C@@H](n2cnc3c(N)ncnc32)[C@H](O)[C@@H]1OP(=O)(O)O [acetyl-CoA]

From paper PMC6976303 (Biochemistry, 2019)
